pIC50: −log10 of the molar value. In brackets after ≈: the same amount, converted by molar mass. Activity calls are given as the source filed them. The calls are words filed in the database; no cut-off is given here.
How the values were obtained:
COLO 205 [1] = test: Antiproliferative activity against human COLO205 cells assessed as reduction in cell viability incubated for 72 hrs by MTT assay; type: functional, cell-based; settings: COLO 205, 72 h
Tubulin = Tubulin (Bos taurus, UniProt Q6B856+Q862L2+Q862F3); test: Inhibition of bovine brain tubulin polymerization measured every 1 min for 60 mins by turbidimetric assay
HCT-116 [2] = test: Antiproliferative activity against human HCT116 cells assessed as reduction in cell viability incubated for 72 hrs by MTT assay; type: functional, cell-based; settings: HCT-116, 72 h
[3] = Solubility of compound in normal saline; type: physicochemical
[4] = Toxicity in BALB/c mouse xenografted with HCT116 cells assessed as reduction in body weight at 20 mg/kg, iv via tail once every 4 days for 16 days; type: organism-based; settings: in vivo
HCT-116 [5] = test: Antitumor activity against human HCT116 cells xenografted in BALB/c mouse assessed as reduction in tumor growth at 20 mg/kg, iv via tail once every 4 days for 16 days; type: functional, organism-based
COLO 205 [6] = test: Antitumor activity against human COLO205 cells xenografted in BALB/c mouse assessed as reduction in tumor growth at 20 mg/kg, iv via tail once every 4 days for 16 days; type: functional, organism-based
[7] = Toxicity in BALB/c mouse xenografted with COLO205 cells assessed as reduction in body weight at 20 mg/kg, iv via tail once every 4 days for 16 days; type: organism-based; settings: in vivo

Row | SMILES | pIC50 (COLO 205 [1]) | IC50 (Tubulin) [nM] | further results
1 | COc1ccc(-c2c3c(nn2CCO)CCc2c-3cc(OC)c(OC)c2OC)cc1F | 5.54 | > 10000 | 
2 | COc1ccc(-c2c3c(nn2C)CCc2c-3cc(OC)c(OC)c2OC)cc1 | 5.47 | > 10000 | 
3 | COc1ccc(/C=C\c2cc(OC)c(OC)c(OC)c2)cc1O [COMBRETASTATIN A4] |  |  | pIC50 (HCT-116 [2]): 9.00
4 | COc1ccc(/C=C2\c3cc(OC)c(OC)c(OC)c3CC[C@H]2O)cc1 | 5.53 | > 10000 | 
5 | COc1ccc(-c2c3c(nn2-c2ccccc2)CCc2c-3cc(OC)c(OC)c2OC)cc1F | < 5.00 | > 10000 | 
6 | COc1ccc(/C=C2\c3cc(OC)c(OC)c(OC)c3CC[C@@H]2O)cc1 | 5.09 | > 10000 | 

Continued by rising pIC50 (COLO 205 [1]), values first:

Row | pIC50 (COLO 205 [1]) | IC50 (Tubulin) [nM] | SMILES | further results
7 | 5.68 | > 10000 | COc1ccc(-c2[nH]nc3c2-c2cc(OC)c(OC)c(OC)c2CC3)cc1NC(=O)[C@@H](N)CO.Cl | Activity [4]: Non-Toxic; Activity (HCT-116 [5]): Active; pIC50 (HCT-116 [2]): 5.71; Activity (COLO 205 [6]): Active; Activity [7]: Non-Toxic
8 | 5.91 | > 10000 | COc1ccc(-c2c3c(nn2C)CCc2c-3cc(OC)c(OC)c2OC)cc1F | 
9 | 6.52 | > 10000 | COc1ccc(-c2[nH]nc3c2-c2cc(OC)c(OC)c(OC)c2CC3)cc1[N+](=O)[O-] | 
10 | 8.70 | 9200 | COc1ccc(-c2[nH]nc3c2-c2cc(OC)c(OC)c(OC)c2CC3)cc1F | 
11 | 9.00 | 1600 | COc1ccc(-c2[nH]nc3c2-c2cc(OC)c(OC)c(OC)c2CC3)cc1N | pIC50 (HCT-116 [2]): 9.00; solubility [3]: 1000 µg/mL (≈ 2620 µM)
